The record followed here is US20240226063A1, “SOLUBLE ANALOGUES OF 6BIO THEREOF AND IMPLEMENTATION THEREOF” (JAWAHARLAL NEHRU CENTRE FOR ADVANCED SCIENTIFIC RESEARCH, priority 2021, published 2024).

Assay [1] concerns Syngap1^+/− mice. The assay is described as follows: Open field test (hyperactivity/motor function and anxiety). It is filed as in vivo. The settings on record: 5 mg/kg intraperitoneal. On the procedure:
(§1) The ability of 6-BIO on the behavioural deficits related to neurodevelopmental disorders was observed based on its theoretical ability to correct synaptic plasticity, EGABA, and behavioural dysfunction in mice with mutated Syngap1 gene. Two populations of mice tested were: wild type (WT) mice and mice with mutated Syngap1 gene referred to as Syngap1^+/− mice. […] In the control group and the Syngap1^+/− mice, the subjects were administered with 5 mg/kg of 6-BIO based on the bodyweight of the subject. […] For example, 2-9, male mice were used.
Syngap1^+/− mice in groups I, II and III. […]

The subject of assay [2] is Syngap1^+/− mice. Kind of assay: Novel object recognition test (memory). Format: in vivo. The settings on record: for Novel Object Recognition (memory, discrimination index): 5 mg/kg intraperitoneal. On the procedure:
as §1
The wild type and Syngap1^+/− mice in the absence of any treatment were compared with the mice intra-peritoneally injected with 6-BIO and their behaviour was recorded with regards to recognition of a familiar object versus reaction to a novel object.

The test system of assay [3] is Syngap1^+/− mice. The assay is described as follows: Social novelty test (social interaction and social preference). Format: in vivo. The settings on record: for Social Interference (social interaction, time with stranger 1 vs empty jar) / Social Preference (time with stranger 2 vs stranger 1): 5 mg/kg intraperitoneal. The method, then: as §1
Social Novelty Test: Similar to the novel object recognition in Example 2, the social novelty test was performed for all age groups at 80 days. The social novelty test was performed based on the social interaction (SI) and social preference (SP) of the control wild type and Syngap1^+/− mice and wild type and Syngap1^+/− treated with 6-BIO. The social interaction was observed based on the time spent by the mice in isolation in comparison to time spent with one other mouse (stranger 1) and the social preference was observed based on the time spent with two different mice (stranger 1 and stranger 2)

The test system of assay [4] is Syngap1^+/− mice. The assay is described as follows: Fluoroethyl-based seizure threshold. The settings on record: intraperitoneal, Group III (P30-80), recorded P80. Format: in vivo. On the procedure: For investigating the effect of 6-BIO on the wild type and Syngap1^+/− mice in group III (P30-P80), mice were injected intraperitoneally with 6-BIO. The subsequent fluoroethyl-based seizure threshold i.e., susceptibility of mice to epileptic seizures was evaluated and plotted as grouped data showing individual points for the involuntary and rhythmic muscular contractions and relaxations referred to as clonus.

Assay [5] deals with Syngap1^+/− mice. The assay is described as follows: Long term potential. Format: in vivo. The settings on record: 5 mg/kg intraperitoneal.
Assay [6] relates to Syngap1^+/− mice. Kind of assay: EGABA, Cl^− reversal potential. It is filed as in vivo. The conditions noted are these: 5 mg/kg intraperitoneal, Group I (P10-16), recorded P16.
The next assay deals with MPTP mice. The assay is described as follows: MPTP mouse model of Parkinsonism (rotarod and open field test). Format: in vivo. The conditions noted are these: 5 mg/kg intraperitoneal, administered along with MPTP. The method, then:
The effect of 6-BIO on neurodegenerative disorders such as Parkinson's was evaluated based on testing the ability of 6-BIO on toxic protein aggregates such as the SNCA/a-synuclein protein in mice (FIG. 9) and the modulation of the autophagy flux (FIG. 10). MPTP is a widely accepted mouse model to study Parkinsonism. […] For the study, mice were intraperitoneally injected with 6-BIO at a concentration of 5 mg/kg based on the body weight of the mice.
FIG. 9 and FIG. 10 illustrated the results observed on the effect of 6-BIO and its derivatives on neurodegenerative disorders. FIG. 9 depicts the effect of administration of 5 mg/kg of 6-BIO on (A) the latency to fall of various cohorts namely placebo mice, MPTP mice (Parkinsonian mice) and the MPTP mice administered with 6-BIO (MPTP+Co) was assessed by rotarod test (B) Representative trajectory maps of all mentioned cohorts as analysed by open field test. (C) Periphery distance travelled by all indicated cohorts as assessed by open field test. […]

The next assay concerns autophagy flux. Kind of assay: Autophagy flux (levels of autophagosomes and autolysosomes). The conditions noted are these: cells, compared to growth media control. Format: cell-based. An excerpt:
The derivatives of 6-BIO such as the compound 6-methoxyindirubin oxime (6-MIO), compound 50 and compound 51 were synthesized to improve their water solubility. The effect of 6-BIO and the aforementioned derivatives of 6-BIO on autophagy flux in the form of autophagosomes and autolysosomes are depicted in FIG. 10. […] Thus, the derivatives have a better potency to restore neuronal function to wild type level in neurodevelopmental disorders and play a neuroprotective role in neurodegeneration.

The mark [7] stands for this setting: Group II (P10-80), recorded P42/P80.
The mark [8] stands for this setting: Group III (P30-80), recorded P80.

Entries after “also recorded” stand apart in the source; their conditions may differ.

Turning to `O=C1Nc2cc(Br)ccc2/C1=C1/Nc2ccccc2/C1=N\O` [6-BIO, (2′Z, 3′E)-6-Bromoindirubin-3′-oxime], the “Open field, Anxiety (number of entries in the centre)” value is “anxiety was corrected” in the assay on Syngap1^+/− mice [1] (Group I (P10-16), recorded P16); “anxiety was corrected; also recorded: ameliorates” in the assay on Syngap1^+/− mice [1] (Group I (P10-16), recorded P80); “anxiety was corrected” in the assay with Syngap1^+/− mice [1] (setting [7]); “partial correction of the anxiety” with Syngap1^+/− mice [1] (setting [8]). Besides, the “Open field, Motor function (hyperactivity, total distance travelled)” value is recorded as “hyperactivity was corrected” in the assay on Syngap1^+/− mice [1] (Group I (P10-16), recorded P16); “partial correction of hyperactivity; also recorded: ameliorates hyperactivity” in the assay on Syngap1^+/− mice [1] (Group I (P10-16), recorded P80); “partial correction was observed” with Syngap1^+/− mice [1] (setting [7]); “no rescue behaviour” in the assay on Syngap1^+/− mice [1] (setting [8]). Moreover, the “Novel Object Recognition (memory, discrimination index)” value in the assay with Syngap1^+/− mice [2] (Group I (P10-16), recorded P80) is “Corrected”; in the assay with Syngap1^+/− mice [2] (setting [7]), “Corrected”; with Syngap1^+/− mice [2] (Group III (P30-80), recorded P80, 5 mg/kg), “corrected the memory deficits”. Further, the “Memory deficits (novel object recognition, discrimination index)” value with Syngap1^+/− mice [2] (all three age groups, behaviour at 80 days) is “substantially corrected memory deficits”. Further, the “Social Interference (social interaction, time with stranger 1 vs empty jar)” value in the assay with Syngap1^+/− mice [3] (Group I (P10-16), recorded P80) was “Corrected”; in the assay with Syngap1^+/− mice [3] (setting [7]) it was “Corrected”; with Syngap1^+/− mice [3] (setting [8]), “Corrected”. The “Social Preference (time with stranger 2 vs stranger 1)” value in the assay with Syngap1^+/− mice [3] (Group I (P10-16), recorded P80, 5 mg/kg) is on record as “lack of improvement”; with Syngap1^+/− mice [3] (setting [7]) it was “Corrected”; with Syngap1^+/− mice [3] (setting [8]) it was “Corrected”. In the assay on Syngap1^+/− mice [3] (all age groups, recorded at P80), the “Social interaction: time spent with stranger 1 as compared to the empty jar” value was “comparable to wild type mice”. Moreover, the “Seizure threshold (fluoroethyl-based, tonic-clonic)” value in the assay with Syngap1^+/− mice [4] is reported as “corrected the seizure threshold”. Also, the Long term potential entry in the assay with Syngap1^+/− mice [5] (setting [7]) and in the assay on Syngap1^+/− mice [5] (setting [8]) was “Corrected” throughout. Further, the “EGABA, Cl^− reversal potential” value with Syngap1^+/− mice [6] is “Corrected”. In addition, the “Effect on MPTP-induced neurodegeneration (rotarod latency to fall, open field periphery distance)” value with MPTP mice is “protects neurons from degeneration”. Besides, the Levels of autophagosomes result in the assay with autophagy flux is given as “increased”.

Regarding `COc1ccc2c(c1)NC(=O)C2=C1Nc2ccccc2C1=NO` [6-MIO, 6-methoxyindirubin oxime], in the assay with autophagy flux, the Levels of autolysosomes result is reported as “increased” and the Levels of autophagosomes result is listed as “increased”.

As for `O=C1Nc2cc(Br)ccc2/C1=C1/Nc2ccccc2/C1=N\O` [compound 50, (2Z,3E)-6′-bromo-3-(hydroxyimino)-[2,3′-biindolinylidene]-2′-one], the Levels of autolysosomes entry in the assay with autophagy flux is on record as “increased”.

With `O=C1Nc2cc(Br)ccc2/C1=C1/Nc2ccccc2/C1=N\OCCO` [compound 51, (2Z,3E)-6′-bromo-3-((2-hydroxyethoxy)imino)-[2,3′-biindolinylidene]-2′-one], in the assay on autophagy flux, the Levels of autolysosomes entry is on record as “increased” and the Levels of autophagosomes entry is “increased”.
